14 molecules from the NIST ThermoML archive (doi:10.1016/j.jct.2008.04.002) can be followed below.

± gives the expanded uncertainty stated by the source.

This data set in a line: activity coefficient (dimensionless); of the first substance listed, at infinite dilution; xn = mol fraction of the nth substance listed. The note with it: Liquid, Chromatography, x1 = 0.

Regarding `C#CCCCC` [1-hexyne] + CC(CC(C)(C)C)CP(=O)([O-])CC(C)CC(C)(C)C.CCCCCCCCCCCCCC[P+](CCCCCC)(CCCCCC)CCCCCC, the activity coefficient is, setting by setting: (303.15 K) 0.38 ± 0.04; (308.15 K) 0.4 ± 0.04; (313.15 K) 0.43 ± 0.04; (318.15 K) 0.46 ± 0.04.

Turning to `c1ccccc1` [benzene] + CC(CC(C)(C)C)CP(=O)([O-])CC(C)CC(C)(C)C.CCCCCCCCCCCCCC[P+](CCCCCC)(CCCCCC)CCCCCC, the activity coefficient was found to be 0.44 ± 0.04 (303.15 K), 0.47 ± 0.04 (308.15 K), 0.48 ± 0.05 (313.15 K) and 0.49 ± 0.05 (318.15 K).

As for `C=CCCC` [1-pentene] + CC(CC(C)(C)C)CP(=O)([O-])CC(C)CC(C)(C)C.CCCCCCCCCCCCCC[P+](CCCCCC)(CCCCCC)CCCCCC, the activity coefficient stood at 0.59 ± 0.05 (303.15 K), 0.61 ± 0.05 (308.15 K), 0.62 ± 0.05 (313.15 K) and 0.64 ± 0.06 (318.15 K).

On to `C=CCCCC` [hex-1-ene] + CC(CC(C)(C)C)CP(=O)([O-])CC(C)CC(C)(C)C.CCCCCCCCCCCCCC[P+](CCCCCC)(CCCCCC)CCCCCC, for which the activity coefficient runs as follows: (303.15 K) 0.63 ± 0.06; (308.15 K) 0.65 ± 0.06; (313.15 K) 0.68 ± 0.06; (318.15 K) 0.7 ± 0.06.

`C#CCCCCC` [1-heptyne] + CC(CC(C)(C)C)CP(=O)([O-])CC(C)CC(C)(C)C.CCCCCCCCCCCCCC[P+](CCCCCC)(CCCCCC)CCCCCC: the activity coefficient runs as follows: (303.15 K) 0.33 ± 0.04; (308.15 K) 0.35 ± 0.04; (313.15 K) 0.39 ± 0.04; (318.15 K) 0.41 ± 0.04.

For the molecule `C1CCCCC1` [cyclohexane] + CC(CC(C)(C)C)CP(=O)([O-])CC(C)CC(C)(C)C.CCCCCCCCCCCCCC[P+](CCCCCC)(CCCCCC)CCCCCC, the activity coefficient stood at 0.51 ± 0.05 (303.15 K), 0.52 ± 0.05 (308.15 K), 0.54 ± 0.05 (313.15 K) and 0.56 ± 0.05 (318.15 K).

With `C=CCCCCCC` [oct-1-ene] + CC(CC(C)(C)C)CP(=O)([O-])CC(C)CC(C)(C)C.CCCCCCCCCCCCCC[P+](CCCCCC)(CCCCCC)CCCCCC, the activity coefficient runs as follows: (303.15 K) 0.75 ± 0.06; (308.15 K) 0.76 ± 0.06; (313.15 K) 0.78 ± 0.07; (318.15 K) 0.81 ± 0.07.

With `CCCCCC` [hexane] + CC(CC(C)(C)C)CP(=O)([O-])CC(C)CC(C)(C)C.CCCCCCCCCCCCCC[P+](CCCCCC)(CCCCCC)CCCCCC, the activity coefficient reads like this: (303.15 K) 0.71 ± 0.06; (308.15 K) 0.73 ± 0.06; (313.15 K) 0.73 ± 0.06; (318.15 K) 0.75 ± 0.06.

Regarding `CCCCC` [pentane] + CC(CC(C)(C)C)CP(=O)([O-])CC(C)CC(C)(C)C.CCCCCCCCCCCCCC[P+](CCCCCC)(CCCCCC)CCCCCC, the activity coefficient (303.15 K) came out at 0.66 ± 0.06, the activity coefficient (308.15 K) turned out to be 0.69 ± 0.06, the activity coefficient (313.15 K) amounted to 0.7 ± 0.06 and the activity coefficient (318.15 K) worked out at 0.71 ± 0.06.

Turning to `C#CCCCCCC` [1-octyne] + CC(CC(C)(C)C)CP(=O)([O-])CC(C)CC(C)(C)C.CCCCCCCCCCCCCC[P+](CCCCCC)(CCCCCC)CCCCCC, the activity coefficient (303.15 K) came to 0.28 ± 0.03, the activity coefficient (308.15 K) came to 0.33 ± 0.04, the activity coefficient (313.15 K) was 0.36 ± 0.04 and the activity coefficient (318.15 K) is 0.39 ± 0.04.

With `CCCCCCC` [heptane] + CC(CC(C)(C)C)CP(=O)([O-])CC(C)CC(C)(C)C.CCCCCCCCCCCCCC[P+](CCCCCC)(CCCCCC)CCCCCC, the activity coefficient stood at 0.77 ± 0.07 (303.15 K), 0.79 ± 0.07 (308.15 K), 0.81 ± 0.07 (313.15 K) and 0.83 ± 0.07 (318.15 K).

As to `CCCCCCCC` [octane] + CC(CC(C)(C)C)CP(=O)([O-])CC(C)CC(C)(C)C.CCCCCCCCCCCCCC[P+](CCCCCC)(CCCCCC)CCCCCC, the activity coefficient came out at 0.79 ± 0.07 (303.15 K), 0.82 ± 0.07 (308.15 K), 0.85 ± 0.07 (313.15 K) and 0.86 ± 0.07 (318.15 K).

For the molecule `C1CCCC1` [cyclopentane] + CC(CC(C)(C)C)CP(=O)([O-])CC(C)CC(C)(C)C.CCCCCCCCCCCCCC[P+](CCCCCC)(CCCCCC)CCCCCC, the activity coefficient (303.15 K) stood at 0.45 ± 0.04, the activity coefficient (308.15 K) was 0.46 ± 0.04, the activity coefficient (313.15 K) amounted to 0.48 ± 0.05 and the activity coefficient (318.15 K) was 0.5 ± 0.05.

`C1CCCCCC1` [cycloheptane] + CC(CC(C)(C)C)CP(=O)([O-])CC(C)CC(C)(C)C.CCCCCCCCCCCCCC[P+](CCCCCC)(CCCCCC)CCCCCC: the activity coefficient runs as follows: (303.15 K) 0.56 ± 0.05; (308.15 K) 0.56 ± 0.05; (313.15 K) 0.58 ± 0.05; (318.15 K) 0.6 ± 0.05.
